Experimental data taken from patent US9260415B2, “Heteroaryl pyridone and aza-pyridone compounds with electrophilic functionality” (Genentech, Inc., priority 2013, dated 2016).

Target: BTK (Homo sapiens (Human), UniProt Q06187)
Assay: BTK LC3K biochemical assay (LabChip 3000 mobility shift)
Method: Formula I compounds were tested by biochemical Btk, Kinase assays (Example 901).
Alternatively, an in vitro BTK biochemical assay that quantifies BTK-catalyzed tyrosine phosphorylation of a synthetic peptide, as detected using a LabChip 3000® microfluidic mobility shift instrument (PerkinElmer; Waltham, Mass.) can be conducted. The substrate peptide, ProfilerPro® FL-Peptide 22 (Product No. 760366; PerkinElmer), has an amino-terminal fluorescent 5-carboxyfluorescein group (5-FAM) and a tyrosine residue that can be phosphorylated by BTK: 5-FAM-[…]-NH2. Purified recombinant human full-length catalytically active BTK protein was obtained from Carna Biosciences (Product No. 08-080; Kobe, Japan).
BTK assay mixtures contained 50 mM 4-(2-hydroxyethyl)-1-piperazineethanesulfonic acid buffer (pH 7.5), 10 mM magnesium chloride, 0.01% Triton X-100, 1 mM dithiothreitol, 1 μM FL-Peptide 22, 45 μM ATP, 1 nM BTK, and a titration of up to 10,000 nM test article in a final concentration of 0.5% (volume to volume [v/v]) DMSO. In the titration experiments, each of the test article concentrations (10 or 12 concentrations) was tested in duplicate. Blank reactions contained ATP, peptide, and DMSO, but no BTK or test article, whereas uninhibited control reactions contained ATP, peptide, BTK, and DMSO, but no test article.
Reactions were incubated for 30 minutes at room temperature (22° C.-23° C.) in a final volume of 20 μL per well in 384-well plates. Ten microliters of BTK plus peptide mixture were added to 10 μL of a mixture of ATP and test article (or vehicle) to initiate the reactions. Reactions were stopped by adding 10 μL of 0.25 M ethylenediaminetetraacetic acid (EDTA) at pH 8.0 to each well. In each reaction, the residual FL-Peptide 22 substrate (S) and the phospho-peptide product (P) generated were separated using the LabChip 3000 instrument. Electrophoretic separation of molecules of product from molecules of substrate was achieved using downstream and upstream voltages of −500 and −2250 V, respectively, at an operating pressure of −1 psi. The 5-FAM group present on both the substrate and product peptides was excited at 488 nm; the fluorescence at 530 nm was detected and the peak heights were reported.
Data Analysis: The extent (or percent) of conversion of substrate to product was calculated from the corresponding peak heights in the electropherogram using HTS Well Analyzer software, version 5.2 (PerkinElmer) and the following equation: conversion=[(P)÷(S+P)]×100 where S and P represent the peak heights of the substrate and product, respectively. After any baseline signal from blank wells containing no BTK was subtracted from the signal of all test wells, the % conversion data were converted to fractional activity as shown in Equation 2, where vi and vo are the % conversion in the presence and absence, respectively, of test article. The % conversion observed in the uninhibited control reaction wells containing BTK and DMSO vehicle, but no test article, was defined to have fractional activity=1 (in this case with no test article present, vi=vo), whereas blank wells with no BTK were defined as having fractional activity=0. Fractional activity was plotted against test article concentration and the data were fit using Genedata Screener software (Genedata; Basel, Switzerland) to the tight-binding apparent inhibition constant (Ki^app) Morrison equation [Williams, J. W. and Morrison, J. F. (1979) The kinetics of reversible tight-binding inhibition. Methods Enzymol 63:437-67]. The following equation was used to calculate fractional activity and Ki^app:
[formula] where [E]T and [I]T are the total concentrations of active enzyme (fixed value of 0.001 μM=1 nM) and test article (e.g., inhibitor; the varied parameter), respectively.

BTK, sequence (Q06187 whole entry): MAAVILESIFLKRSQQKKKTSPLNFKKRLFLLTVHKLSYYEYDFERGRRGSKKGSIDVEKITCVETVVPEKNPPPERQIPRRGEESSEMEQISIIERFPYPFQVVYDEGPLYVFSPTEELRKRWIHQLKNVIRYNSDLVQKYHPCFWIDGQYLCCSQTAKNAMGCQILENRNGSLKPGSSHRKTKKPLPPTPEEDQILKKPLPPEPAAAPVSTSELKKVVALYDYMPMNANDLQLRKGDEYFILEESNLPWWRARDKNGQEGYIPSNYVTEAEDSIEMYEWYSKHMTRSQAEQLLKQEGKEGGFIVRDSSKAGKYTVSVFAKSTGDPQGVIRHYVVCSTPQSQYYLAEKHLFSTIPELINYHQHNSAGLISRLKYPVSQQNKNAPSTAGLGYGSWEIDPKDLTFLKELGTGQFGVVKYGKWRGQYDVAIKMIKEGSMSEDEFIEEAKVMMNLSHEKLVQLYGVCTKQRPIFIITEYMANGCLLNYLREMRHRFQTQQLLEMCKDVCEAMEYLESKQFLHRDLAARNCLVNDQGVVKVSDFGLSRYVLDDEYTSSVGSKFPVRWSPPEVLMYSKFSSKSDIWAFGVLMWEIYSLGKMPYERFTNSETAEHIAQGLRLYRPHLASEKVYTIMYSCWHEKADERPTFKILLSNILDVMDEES

| Structure (SMILES) | Ki [nM] |
| --- | --- |
| C=CC(=O)N(C)CCOc1cccc(Nc2cc(-c3cc(F)cc(-n4ncc5c6c(sc5c4=O)CCCC6)c3CO)cn(C)c2=O)n1 [Compound 113, N-[2-[[6-[[5-[5-fluoro-2-(hydroxymethyl)-3-(4-oxo-6,7,8,9-tetrahydrobenzothiopheno[2,3-d]pyridazin-3-yl)phenyl]-1-methyl-2-oxo-3-pyridyl]amino]-2-pyridyl]oxy]ethyl]-N-methyl-prop-2-enamide] | 0.146 |
| C=CC(=O)NCCOc1cccc(Nc2cc(-c3ccnc(N4CCn5c(cc6c5CC(C)(C)C6)C4=O)c3CO)cn(C)c2=O)n1 [Compound 101, N-{2-[(6-{[5-(2-{4,4-dimethyl-9-oxo-1,10-diazatricyclo[6.4.0.0^2,6]dodeca-2(6),7-dien-10-yl}-3-(hydroxymethyl)pyridin-4-yl)-1-methyl-2-oxo-1,2-dihydropyridin-3-yl]amino}pyridin-2-yl)oxy]ethyl}prop-2-enamide] | 0.792 |
| C=C(C#N)C(=O)NCCOc1cccc(Nc2cc(-c3cc(F)cc(-n4ncc5c6c(sc5c4=O)CCCC6)c3CO)cn(C)c2=O)n1 [Compound 117, 2-cyano-N-[2-[[6-[[5-[5-fluoro-2-(hydroxymethyl)-3-(4-oxo-6,7,8,9-tetrahydrobenzothiopheno[2,3-d]pyridazin-3-yl)phenyl]-1-methyl-2-oxo-3-pyridyl]amino]-2-pyridyl]oxy]ethyl]prop-2-enamide] | 0.576 |
| C=CC(=O)N[C@H]1CCCN(c2cccc(Nc3cc(-c4cc(F)cc(-n5ncc6c7c(sc6c5=O)CCCC7)c4CO)cn(C)c3=O)n2)C1 [Compound 115, N-[(3S)-1-[6-[[5-[5-fluoro-2-(hydroxymethyl)-3-(4-oxo-6,7,8,9-tetrahydrobenzothiopheno[2,3-d]pyridazin-3-yl)phenyl]-1-methyl-2-oxo-3-pyridyl]amino]-2-pyridyl]-3-piperidyl]prop-2-enamide] | 2.16 |
| C=CC(=O)N(C)CCOc1cccc(Nc2cc(-c3ccnc(N4CCn5c(cc6c5CC(C)(C)C6)C4=O)c3CO)cn(C)c2=O)n1 [Compound 112, N-[2-[[6-[[5-[2-(7,7-dimethyl-4-oxo-1,2,6,8-tetrahydrocyclopenta[3,4]pyrrolo[3,5-b]pyrazin-3-yl)-3-(hydroxymethyl)-4-pyridyl]-1-methyl-2-oxo-3-pyridyl]amino]-2-pyridyl]oxy]ethyl]-N-methyl-prop-2-enamide] | 1.75 |
| C=CC(=O)N[C@@H](C)COc1cccc(Nc2cc(-c3cc(F)cc(-n4ncc5c6c(sc5c4=O)CCCC6)c3CO)cn(C)c2=O)n1 [Compound 108, N-[(1S)-2-[[6-[[5-[5-fluoro-2-(hydroxymethyl)-3-(4-oxo-6,7,8,9-tetrahydrobenzothiopheno[2,3-d]pyridazin-3-yl)phenyl]-1-methyl-2-oxo-3-pyridyl]amino]-2-pyridyl]oxy]-1-methyl-ethyl]prop-2-enamide] | 2.57 |
| C=CC(=O)NCCNc1cccc(Nc2cc(-c3cc(F)cc(-n4ncc5c6c(sc5c4=O)CCCC6)c3CO)cn(C)c2=O)n1 [Compound 105, N-[2-[[6-[[5-[5-fluoro-2-(hydroxymethyl)-3-(4-oxo-6,7,8,9-tetrahydrobenzothiopheno[2,3-d]pyridazin-3-yl)phenyl]-1-methyl-2-oxo-3-pyridyl]amino]-2-pyridyl]amino]ethyl]prop-2-enamide] | 0.248 |
| C=CC(=O)NCCOc1cccc(Nc2cc(-c3ccnc(-n4ncc5cc(C(C)(C)C)cc(F)c5c4=O)c3CO)cn(C)c2=O)n1 [Compound 104, N-[2-[[6-[[5-[2-(6-tert-butyl-8-fluoro-1-oxo-phthalazin-2-yl)-3-(hydroxymethyl)-4-pyridyl]-1-methyl-2-oxo-3-pyridyl]amino]-2-pyridyl]oxy]ethyl]prop-2-enamide] | 0.915 |
| CC#CC(=O)NCCOc1cccc(Nc2cc(-c3cc(F)cc(-n4ncc5c6c(sc5c4=O)CCCC6)c3CO)cn(C)c2=O)n1 [Compound 106, N-[2-[[6-[[5-[5-fluoro-2-(hydroxymethyl)-3-(4-oxo-6,7,8,9-tetrahydrobenzothiopheno[2,3-d]pyridazin-3-yl)phenyl]-1-methyl-2-oxo-3-pyridyl]amino]-2-pyridyl]oxy]ethyl]but-2-ynamide] | 0.306 |
| C=CC(=O)N[C@@H](C)COc1cccc(Nc2cc(-c3ccnc(N4CCn5c(cc6c5CC(C)(C)C6)C4=O)c3CO)cn(C)c2=O)n1 [Compound 107, N-[(1S)-2-[[6-[[5-[2-(7,7-dimethyl-4-oxo-1,2,6,8-tetrahydrocyclopenta[3,4]pyrrolo[3,5-b]pyrazin-3-yl)-3-(hydroxymethyl)-4-pyridyl]-1-methyl-2-oxo-3-pyridyl]amino]-2-pyridyl]oxy]-1-methyl-ethyl]prop-2-enamide] | 0.612 |
| C=CC(=O)NCCN(C)c1cccc(Nc2cc(-c3cc(F)cc(-n4ncc5c6c(sc5c4=O)CCCC6)c3CO)cn(C)c2=O)n1 [Compound 111, N-[2-[[6-[[5-[5-fluoro-2-(hydroxymethyl)-3-(4-oxo-6,7,8,9-tetrahydrobenzothiopheno[2,3-d]pyridazin-3-yl)phenyl]-1-methyl-2-oxo-3-pyridyl]amino]-2-pyridyl]-methyl-amino]ethyl]prop-2-enamide] | 0.494 |
| CCC(=O)NCCOc1cccc(Nc2cc(-c3ccnc(N4CCn5c(cc6c5CC(C)(C)C6)C4=O)c3CO)cn(C)c2=O)n1 [Compound 119, N-{2-[(6-{[5-(2-{4,4-dimethyl-9-oxo-1,10-diazatricyclo[6.4.0.0^2,6]dodeca-2(6),7-dien-10-yl}-3-(hydroxymethyl)pyridin-4-yl)-1-methyl-2-oxo-1,2-dihydropyridin-3-yl]amino}pyridin-2-yl)oxy]ethyl}propanamide] | 0.963 |
| Cn1cc(-c2ccnc(N3CCn4c(cc5c4CC(C)(C)C5)C3=O)c2CO)cc(Nc2ccnc(N3CCC(C(=O)NCC#N)C3)n2)c1=O (stereo not shown) [Compound 102, N-(cyanomethyl)-1-(4-{[5-(2-{4,4-dimethyl-9-oxo-1,10-diazatricyclo[6.4.0.0^2,6]dodeca-2(6),7-dien-10-yl}-3-(hydroxymethyl)pyridin-4-yl)-1-methyl-2-oxo-1,2-dihydropyridin-3-yl]amino}pyrimidin-2-yl)pyrrolidine-3-carboxamide] | 0.864 |
